Consider one molecule from patent US9808470B2, “Estrogenic components for use in the treatment of neurological disorders” (UNIVERSITE DE LIEGE, priority 2012, dated 2017).

Common to all, as to type: in vivo
Series [1] can be described thus: Ex.3 neuroprotective HIE rat model: rectal temperature. The following applies: E4 1, 5, 10, 50 mg/kg/day ip PND4-7 before HI; 0, 2, 4 h after hypoxia. The procedure:
The rectal temperature of the rat pups was measured with a multipurpose thermometer (BAT-10R, Physitemp Instruments Inc., Clifton, N.J., US) along with a rectal probe (RET-4, BioMedical Instruments, Zollnitz, Germany) at 0, 2, and 4 hours after exposure to hypoxic insult. To keep the variability of the temperature low, measurements of rectal temperature were made in a 25° C. room 15 min after removal of the pups from the nest (except the 1st post-hypoxic measurement which was done immediately). It has been shown that the rectal temperature corresponds very well to the brain core temperature (Thoresen et al. 1996. Arch Dis Child Fetal Neonatal 74: F3-F9, Yager et al. 1993. Pediatr Res 34: 525-529).
Newborn rat pups were assigned to one of the following 6 groups from postnatal day 4: Sham group (n=24), Vehicle group (n=14), E4 1 mg/kg/per day group (n=11), E4 5 mg/kg/per day group (n=14), E4 10 mg/kg/per day group (n=14), or E4 50 mg/kg/per day group (n=19). From postnatal day 4, rat pups were intraperitoneally injected either vehicle (Vehicle group) or E4 (1, 5, 10, or 50 mg/kg/per day in accordance to the E4 group assignment) or neither vehicle nor E4 (Sham group). […]

Series [2] can be described thus: Ex.4 therapeutic HIE rat model: body weight. The following applies: PND14. The procedure:
To study the therapeutic effect of estetrol, newborn rat pups were assigned to one of the following 6 groups at postnatal day 7: sham group (n=29), vehicle group (n=20), 1 mg/kg E4 group (n=16), 5 mg/kg E4 group (n=19), 10 mg/kg day E4 (n=17) and 50 mg/kg day E4 group (n=15). At postnatal day 7 animals were anesthetized with isoflurane (induction, 3.0%; maintenance, 1.5%), and the rat pups from vehicle and E4 groups passed through surgery encompassing left common carotid artery double ligation and cut. After surgery, the pups were returned to their dams and allowed to recover for 1 hour. The pups were then placed in a humidified hypoxic in vivo cabinet (CoyLab). Hypoxia was produced by the inhalation of 11%-8% of oxygen balanced by nitrogen at decreased concentration of oxygen for 20 minutes, followed by inhalation of 8% oxygen and 92% nitrogen at constant concentration for 35 minutes. All the manipulations were performed at 37° C.
Upon retrieval from the hypoxia chamber the rat pups were injected intraperitoneally either by vehicle (vehicle group) or by E4 (1 mg/kg, 5 mg/kg, 10 mg/kg or 50 mg/kg) in accordance to the group assignment. The animals from the sham group went through similar procedures but proceeded neither left common carotid artery ligation and cut followed by hypoxia nor vehicle or estetrol administration. Rat pups recovered with their dams until being sacrificed at postnatal day 14.
To evaluate the post-operative well-being of rat pups due to the performed manipulations and estetrol treatment, the post-operative body weight was measured at postnatal days 7 and 14.

In series [3] the test system is vascular endothelial growth factor (VEGF). Put plainly: Ex.8 therapeutic HIE rat model: VEGF staining. The following applies: 5 mg/kg/day E4, hippocampus (same region). The method, then: To study the therapeutic effect of estetrol, newborn rat pups were assigned to one of the following 14 groups at postnatal day 7 (FIG. 23(B)): Sham group (n=12), Vehicle (n=15), 5 mg/kg/day E4 (n=11), 10 mg/kg/day E4 (n=11), 5 mg/kg/day E4+1.6 mg/kg/day PROG (n=11), 10 mg/kg/day E4+1.6 mg/kg/day PROG (n=11), 5 mg/kg/day E4+16 mg/kg/day PROG (n=11), 10 mg/kg/day E4+16 mg/kg/day PROG (n=13), 5 mg/kg/day E4+136 ng//kg/day E2 (n=11), 10 mg/kg/day E4+136 ng/kg/day E2 (n=11), 5 mg/kg/day E4+1.6 mg/kg/day PROG+136 ng/kg/day E2 (n=12), 10 mg/kg/day E4+1.6 mg/kg/day PROG+136 ng/kg/day E2 (n=11), 5 mg/kg/day E4+16 mg/kg/day PROG+136 ng/kg/day E2 (n=11), 10 mg/kg/day E4+16 mg/kg/day PROG+136 ng/kg/day (n=12) groups. […] After surgery, the pups were returned to their dams and allowed to recover for 1 hour. The pups were then placed in a humidified hypoxic in vivo cabinet (CoyLab). […]
The sections were heated in 10 mmol/L citrate buffer (pH 6.0) at 100° C. for 10 minutes. […] Samples were analyzed with the aid of a microscope (Olympus Vanox AHBT3, Olympus), and the ImageJ software 15 (NIH). The percentage of positively stained cells was quantified as a sum of positively stained either DCX or VEGF cells divided by the total number of DAPI positive cells expressed in percentage.

`C[C@]12CC[C@@H]3c4ccc(O)cc4CC[C@H]3[C@@H]1[C@@H](O)[C@@H](O)[C@@H]2O` [E4, 1,3,5(10)-estratrien-3,15α,16α,17β-tetrol]: the rectal temperature entry in series [1] is “did not affect the body temperature”. In addition, the body weight entry in series [2] (1 mg/kg E4 single ip dose after HI, vs vehicle) is on record as “significantly higher body weight than the vehicle group”; in series [2] (5 mg/kg E4 single ip dose after HI, vs sham), “Sham operated animals showed significantly higher body weight”; in series [2] (5 mg/kg E4 single ip dose after HI, vs vehicle) it was “significantly higher body weight than the vehicle group”; in series [2] (10 mg/kg E4 single ip dose after HI, vs vehicle), “significantly higher body weight than the vehicle group”; in series [2] (50 mg/kg E4 single ip dose after HI, vs vehicle), “significantly higher body weight than the vehicle group”. Further, the “VEGF positively stained cell percentage” value in series [3] worked out at 54.05±3.51%.
